Data as given in patent US4214093A, “Amino- or guanidino-1,2,3,4-tetrahydro-1-naphthoic esters” (Torii & Co., Ltd., priority 1977, dated 1980).
pIC50: −log10 of the molar value. Read-outs that look alike come from different tables or passages of the source.

Key:
[1] = biological target: Human Plasma Kallikrein (Homo sapiens, UniProt P03952); assay: Inhibitory effect on ester-hydrolyzing activity of human plasma kallikrein (TAMe substrate); type: biochemical; conditions: for inhibition at 1000 µM: read-out: Kallikrein percent inhibition; for pIC50: Table 4 bracketed value, read-out: Kallikrein ID50
Experimental: (§1) The enzyme-inhibitory activities in vitro of the compounds of this invention were measured by the following procedure according to the method of M. Muramatsu et al. [[…]. […] After the incubation, 1.5 ml of 2 M alkaline hydroxylamine was added and thoroughly mixed, and allowed to stand at room temperature for 15 minutes.

[2] = biological target: Bovine Thrombin (Bos taurus, UniProt P00735); assay: Inhibitory effect on ester-hydrolyzing activity of bovine thrombin (TAMe substrate); type: biochemical; conditions: for inhibition at 1000 µM: at 10^-3 M, in vitro, TAMe, read-out: Thrombin percent inhibition
Experimental: The enzyme-inhibitory activities in vitro of the compounds of this invention were measured by the following procedure according to the method of M. Muramatsu et al. [M. Muramatsu, T. Onishi, S. Makino, Y. Hayashi and S. Fujii: J. Biochem., 58, 214 (1965)]
To 0.1 ml of trypsin (5 μg/ml) were added 0.5 ml of 0.1 M borate buffer solution (pH 8.6) containing 10 mM CaCl2, and 0.1 ml of a varying concentration of an inhibitor solution, and preincubation was carried out at 37° C. for 5 minutes. Then, 10 μmoles of the substrate, TAMe (tosylarginine methyl ester), was added, and incubation was preformed at 37° C. for 30 minutes.
After the incubation, 1.5 ml of 2 M alkaline hydroxylamine was added and thoroughly mixed, and allowed to stand at room temperature for 15 minutes. Then, 1.0 ml of each of 18% trichloroacetic acid, 4 N HCl and 10% FeCl3 was added and thoroughly mixed. If necessary, the mixture was centrifuged at 3,000 rpm for 10 minutes, and the absorbance of the supernatant was measured at 530 nm.
It was measured by using 0.4 ml of bovine thrombin […], 0.02 M sodium phosphate buffer solution (pH 7.4) and TAMe as substrate following the method described in (1).

[3] = biological target: Human Plasmin (Homo sapiens, UniProt P00747); assay: Inhibitory effect on ester-hydrolyzing activity of human plasmin (TAMe substrate); type: biochemical; conditions: in vitro, TAMe; for pIC50: Table 4 bracketed value, read-out: Plasmin ID50; for inhibition at 1000 µM: at 10^-3 M, read-out: Plasmin percent inhibition
Experimental: as §1, with “minutes. […] It was measured by using 0.1 ml of plasmin (generated by activation of plasminogen with streptokinase) and TAMe as substrate following the method described in (1).” for “minutes.”

[4] = biological target: T1, Human Cl Esterase (Homo sapiens, UniProt P09871); assay: Inhibitory effect on ester-hydrolyzing activity of human Cl esterase (ATEe substrate); type: biochemical; conditions: for pIC50: pH 7.4, Table 4 bracketed value, read-out: Cl-esterase ID50; for inhibition at 1000 µM: read-out: Cl-esterase percent inhibition
T1 sequence (P09871 438-688 limits assumed): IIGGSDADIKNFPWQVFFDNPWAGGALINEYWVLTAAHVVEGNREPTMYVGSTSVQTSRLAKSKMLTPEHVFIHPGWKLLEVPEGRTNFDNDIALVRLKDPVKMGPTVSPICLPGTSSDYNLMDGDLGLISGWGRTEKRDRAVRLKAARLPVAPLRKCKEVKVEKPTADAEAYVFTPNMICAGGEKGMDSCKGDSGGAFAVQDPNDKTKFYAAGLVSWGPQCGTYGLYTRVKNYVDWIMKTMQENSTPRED
T1 sequence (P09871 16-437 partner limits assumed): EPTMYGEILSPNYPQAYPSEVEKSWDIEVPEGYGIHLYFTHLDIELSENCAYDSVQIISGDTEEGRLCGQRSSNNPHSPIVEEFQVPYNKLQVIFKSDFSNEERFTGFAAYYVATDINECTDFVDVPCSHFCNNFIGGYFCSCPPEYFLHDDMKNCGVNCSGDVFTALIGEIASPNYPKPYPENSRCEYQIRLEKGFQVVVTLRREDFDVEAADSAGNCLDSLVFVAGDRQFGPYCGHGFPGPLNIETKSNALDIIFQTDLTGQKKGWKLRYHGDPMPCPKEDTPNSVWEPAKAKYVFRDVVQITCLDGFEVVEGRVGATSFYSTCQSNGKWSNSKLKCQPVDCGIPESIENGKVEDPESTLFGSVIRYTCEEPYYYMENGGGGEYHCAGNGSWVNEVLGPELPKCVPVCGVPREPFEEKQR
Experimental: It was measured by using 0.1 ml of Cl esterase, 0.1 ml of 0.02 M sodium phosphate buffer solution (pH 7.4 ) and 10 μmoles of ATEe (acetyltyrosine ethyl ester) as substrate following the method described in (1).

[5] = biological target: T2, Trypsin (Bos taurus, UniProt P00760); assay: Inhibitory effect on ester-hydrolyzing activity of trypsin (TAMe substrate); type: biochemical; conditions: for inhibition at 1000 µM: read-out: Trypsin percent inhibition; for pIC50: pH 8.6, 37° C., Table 4 bracketed value, read-out: Trypsin ID50
T2 sequence (P00760 24-246): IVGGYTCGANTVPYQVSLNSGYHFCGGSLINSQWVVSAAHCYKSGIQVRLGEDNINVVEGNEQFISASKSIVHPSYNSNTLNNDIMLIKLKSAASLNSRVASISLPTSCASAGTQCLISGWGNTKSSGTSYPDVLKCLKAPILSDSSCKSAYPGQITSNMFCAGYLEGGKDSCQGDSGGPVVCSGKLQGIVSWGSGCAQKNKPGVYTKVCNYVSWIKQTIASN
Experimental: as §1

[6] = test system: thrombin; assay: Inhibitory activity on thrombus formation: protection from lethal thrombin injection in mice; type: in vivo, mice (ddY strain); conditions: 10 minutes before thrombin 300 NIH units/kg i.v., No. 91 in 2.5% gum arabic
Experimental: White male mice (ddY strain), 4 weeks age and weighing 18-27 g, were used throughout the experiments. […] The intravenous injection of 300 NIH units/kg of thrombin over 30 seconds into mice was lethal to all animals. The compounds were intraperitoneally administered in doses of 1, 10, and 100 mg/kg in saline unless otherwise described.
Compounds were intraperitoneally administered 10 minutes before thrombin injection. Compound No. 91 was dissolved in 2.5% gum arabic.

[7] = test system: clotting activity of thrombin; assay: Inhibitory activity on plasma clotting (rabbit platelet poor plasma, thrombin-induced); type: biochemical; conditions: H2O control
Experimental: Blood was drawn from carotid artery of an ether anesthetized rabbit with 1/10 volume of 3.8% sodium citrate. Platelet poor plasma (PPP) was prepared from citrated blood which was centrifuged at 3,000 r.p.m. for 15 minutes at 4° C. PPP, 0.9 ml, was taken into cell, 10μ of a compound solution was added and incubated at 37° C. for 10 minutes. […] Compounds were dissolved in distilled water or 50% dimethyl sulfoxide (0.5% final concentration).

Human Plasma Kallikrein, sequence (P03952 391-638 limits assumed): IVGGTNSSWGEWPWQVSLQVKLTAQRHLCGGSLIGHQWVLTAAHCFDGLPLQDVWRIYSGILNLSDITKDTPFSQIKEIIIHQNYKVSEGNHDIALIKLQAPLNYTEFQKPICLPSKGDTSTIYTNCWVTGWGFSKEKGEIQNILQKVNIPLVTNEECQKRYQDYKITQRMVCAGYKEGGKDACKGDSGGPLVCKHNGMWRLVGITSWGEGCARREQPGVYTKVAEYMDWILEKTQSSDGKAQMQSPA
Human Plasma Kallikrein, sequence (P03952 20-390 partner limits assumed): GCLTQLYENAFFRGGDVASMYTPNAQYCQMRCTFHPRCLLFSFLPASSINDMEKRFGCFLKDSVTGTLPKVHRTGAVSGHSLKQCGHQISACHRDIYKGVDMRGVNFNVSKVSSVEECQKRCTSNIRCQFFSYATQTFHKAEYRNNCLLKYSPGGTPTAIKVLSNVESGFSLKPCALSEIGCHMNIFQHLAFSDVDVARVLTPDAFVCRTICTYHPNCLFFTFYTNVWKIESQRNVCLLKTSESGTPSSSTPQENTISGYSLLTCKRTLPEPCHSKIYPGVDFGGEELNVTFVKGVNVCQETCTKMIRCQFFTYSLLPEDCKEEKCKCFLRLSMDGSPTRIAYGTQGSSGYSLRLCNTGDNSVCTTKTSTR
Human Plasmin, sequence (P00747 581-810 limits assumed): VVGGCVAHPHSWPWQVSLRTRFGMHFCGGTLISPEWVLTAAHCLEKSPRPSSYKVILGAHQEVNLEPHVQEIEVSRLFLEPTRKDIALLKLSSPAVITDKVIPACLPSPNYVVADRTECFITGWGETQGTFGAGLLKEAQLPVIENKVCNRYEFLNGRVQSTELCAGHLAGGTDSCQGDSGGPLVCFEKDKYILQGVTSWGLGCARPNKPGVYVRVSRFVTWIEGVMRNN
Human Plasmin, sequence (P00747 97-580 partner limits assumed): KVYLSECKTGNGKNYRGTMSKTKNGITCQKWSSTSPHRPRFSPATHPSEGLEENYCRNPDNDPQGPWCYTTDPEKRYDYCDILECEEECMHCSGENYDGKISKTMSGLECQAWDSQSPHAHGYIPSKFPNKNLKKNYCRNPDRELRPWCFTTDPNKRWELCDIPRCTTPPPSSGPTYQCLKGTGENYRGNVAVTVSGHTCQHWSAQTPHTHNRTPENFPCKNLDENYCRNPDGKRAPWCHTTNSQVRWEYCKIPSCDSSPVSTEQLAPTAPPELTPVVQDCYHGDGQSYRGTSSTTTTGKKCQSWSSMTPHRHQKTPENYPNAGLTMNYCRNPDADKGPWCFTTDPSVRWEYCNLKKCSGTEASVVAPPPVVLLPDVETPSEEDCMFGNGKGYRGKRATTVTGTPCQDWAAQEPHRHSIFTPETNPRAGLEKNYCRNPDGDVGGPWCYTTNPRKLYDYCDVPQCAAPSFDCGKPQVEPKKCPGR

pIC50 ([1]; in vitro, TAMe) | SMILES | pIC50 [2] | pIC50 [3] | pIC50 ([4]; in vitro, ATEe) | inhibition at 1000 µM [3] | inhibition at 1000 µM [4] | pIC50 ([5]; in vitro, TAMe) | other results
– | CCCCOc1ccc(OC(=O)C2CCCc3c(NC(=N)N)cccc32)cc1 (stereo not drawn) [Compound 116] | 3.00 | 3.00 | 3.46 | – | – | – | inhibition at 1000 µM [1]: 29.3%; inhibition at 1000 µM [5]: < 3.2%
3.70 | N=C(N)Nc1ccc2c(c1)C(C(=O)Oc1cccc3c1CCCC3)CCC2 (stereo not drawn) [Compound 167] | – | 3.00 | 3.38 | – | – | – | inhibition at 1000 µM [2]: < 3.2%; inhibition at 1000 µM ([5]; at 10^-3 M, in vitro, TAMe): 44.8%
– | CN(C)C(=O)COC(=O)CCc1ccc(OC(=O)C2CCCc3ccc(N)cc32)cc1 (stereo not drawn) [Compound 103] | 3.00 | – | – | 21.5% | 27.2% | 4.11 | inhibition at 1000 µM ([1]; at 10^-3 M, in vitro, TAMe): 13.3%
– | COC(=O)c1ccc(OC(=O)C2CCCc3ccc(N)cc32)cc1 (stereo not drawn) [Compound 91] | 3.68 | – | – | 40.7% | 27.4% | 4.77 | % protective ([6]; 1 mg/kg i.p.): 0%; Survived / Tested ([6]; 1 mg/kg i.p.): 0/10; % protective ([6]; 10 mg/kg i.p.): 0%; Survived / Tested ([6]; 10 mg/kg i.p.): 0/10; % protective ([6]; 100 mg/kg i.p.): 20%; Survived / Tested ([6]; 100 mg/kg i.p.): 2/10
– | NC(=O)COC(=O)c1ccc(OC(=O)C2CCCc3ccc(N)cc32)cc1 (stereo not drawn) [Compound 99] | 4.18 | 3.52 | 3.27 | – | – | 4.06 | inhibition at 1000 µM [1]: 17.2%
– | Nc1ccc2c(c1)C(C(=O)Oc1ccc(OC(=O)C3CCCc4ccc(N)cc43)cc1)CCC2 (stereo not drawn) [Compound 106] | – | – | – | < 3.2% | – | 4.04 | inhibition at 1000 µM ([1]; at 10^-3 M, in vitro, TAMe): < 3.2%; inhibition at 1000 µM [2]: 35%; inhibition at 1000 µM ([4]; at 10^-3 M, in vitro, ATEe): 31%
3.92 | N=C(N)Nc1ccc2c(c1)C(C(=O)Oc1ccc(Cl)cc1)CCC2 (stereo not drawn) [Compound 137] | 4.35 | 3.00 | 3.60 | – | – | 4.11 | Percent inhibition of clotting activity ([7]; 3 × 10^-5 M): 10.0%; Percent inhibition of clotting activity ([7]; 10^-4 M): 2.0%; Percent inhibition of clotting activity ([7]; 10^-5 M): -5.0%

SMILES | pIC50 ([1]; in vitro, TAMe) | pIC50 [2] | pIC50 [3] | pIC50 ([4]; in vitro, ATEe) | inhibition at 1000 µM [3] | inhibition at 1000 µM [4] | pIC50 ([5]; in vitro, TAMe) | other results
N#Cc1ccc(OC(=O)C2CCCc3c(NC(=N)N)cccc32)cc1 (stereo not drawn) [Compound 162] | 3.00 | 3.00 | – | – | 49% | 26.4% | – | inhibition at 1000 µM ([5]; at 10^-3 M, in vitro, TAMe): 44.2%
